Data: patent EP2924040A1, “2-Amino-1-(o-tolyl)pyrrolo[3,2-b]quinoxaline-3-carboxamide derivates” (Universität Zürich, priority 2014, dated 2015)

Tested on: A498
Assay: Cell culture and GI50 determination (resazurin)
Format: cell-based
Details: Homo sapiens, A498, 48h incubation
Experimental: MDA-MB-231 (breast cancer) and KM12 (colon cancer) cells obtained from the UZH Cancer Institute, HOP-92 (lung cancer) cells purchased from the National Cancer Institute (NCl) and A498 (kidney cancer) cells obtained from Prof. Krek (Institute of Cell Biology, ETH Zurich) were cultured in Dulbecco's modified Eagle's medium (DMEM) supplemented with 10% (v/v) fetal bovine serum. K562 leukemia cells obtained from Dr. Silvio Hemmi (Institute of Molecular Life Sciences, UZH) were cultured using RPMI medium supplemented with 5% (v/v) fetal bovine serum. All the media was additionally supplemented with 100 units/mL of penicillin, 100µg/mL of streptomycin, 4.5 g/L glucose, 0.11g/L sodium pyrubate and 2mM glutamine and the cells were grown at 37 °C in 5% CO2 atmosphere with 80% relative humidity.
MDA-MB-231, HT-29, KM12, HOP-92 and A498 cells were plated at 10,000 cells per well (100 µL per well) in 96-well culture dishes and allowed to incubate for 24 h. The old media was removed, the cells were washed with PBS (phosphate-buffered saline) and fresh media was added. A 5 mmol/L solution of inhibitor (in 100% DMSO) was serially diluted in the culture media (12 different concentrations were used) and allowed to incubate for 72 h (MDA-MB-231) or 48h (A498). Control cells were treated with the same DMSO concentrations. After the incubation period the media was once more removed and the cells were washed with PBS to then be incubated with fresh media containing 86 nmol/L resazurin. After 3 hours, the fluorescence was quantified using a fluorescence microplate reader (Biotek, FLx800™) at the respective excitation and emission wavelength of 560 and 590 nm. Resazurin becomes fluorescent under mitochondrial reduction and its emission directly correlates with the metabolic stability of the cells. The measured fluorescence values were corrected from the control samples containing DMSO and GI50 values were determined by plotting the fraction of metabolically active cells against the log of the drug concentration. All measurements were performed at least in triplicate.

COc1ccc(C)c(-n2c(N)c(C(N)=O)c3nc4ccccc4nc32)c1 [Compound 8, 2-Amino-1-(5-methoxy-2-methylphenyl)-1H-pyrrolo[2,3-b]quinoxaline-3-carboxamide, reference compound]
GI50: 59.3 µM
